The record followed here is patent publication US7560567B2, “2-pyridinylethylbenzamide derivatives” (Bayer Cropscience S.A., priority 2003, dated 2009).

The test system of assay [1] is Alternaria brassicae. The assay can be described thus: In vivo test on Alternaria brassicae (leaf spot of crucifers), radish plants, preventive spray. The conditions noted are these: for pest or weed control at 330 ppm: Alternaria brassicae, radish plants (Pernot), treated 24 h before contamination, grading 6 to 7 days after contamination vs control plants, read-out: protection (good, at least 50%, to total); for effectiveness on Alternaria brassicae: 330 ppm, comparison compounds of WO 01/11965. The method, then:
(§1) The active ingredient tested is prepared by potter homogenisation in a concentrated suspension type formulation at 100 g/l. This suspension is then diluted with water to obtain the desired active material concentration.
Radish plants (Pernot variety) in starter cups, sown on a 50/50 peat soil-pozzolana substrate and grown at 18-20° C., are treated at the cotyledon stage by spraying with the aqueous suspension described above.
Plants, used as controls, are treated with an aqueous solution not containing the active material.
After 24 hours, the plants are contaminated by spraying them with an aqueous suspension of Alternaria brassicae spores (40,000 spores per cm^3). The spores are collected from a 12-13-day-old culture.
The contaminated radish plants are incubated for 6-7 days at about 18° C., under a humid atmosphere.
Grading is carried out 6 to 7 days after the contamination, in comparison with the control plants.

Assay [2] concerns Pyrenophora teres. The assay can be described thus: In vivo test on Pyrenophora teres (barley net blotch), barley plants, preventive spray. Conditions: 288 h, barley plants (Express), treated 24 h before contamination, grading 12 days after contamination vs control plants, read-out: protection (good, at least 50%, to total). The procedure: as §1
Barley plants (Express variety) in starter cups, sown on a 50/50 peat soil-pozzolana substrate and grown at 12° C., are treated at the 1-leaf stage (10 cm tall) by spraying with the aqueous suspension described above. Plants, used as controls, are treated with an aqueous solution not containing the active material.
After 24 hours, the plants are contaminated by spraying them with an aqueous suspension of Pyrenophora teres spores (12,000 spores per ml). The spores are collected from a 12-day-old culture. The contaminated barley plants are incubated for 24 hours at about 20° C. and at 100% relative humidity, and then for 12 days at 80% relative humidity.
Grading is carried out 12 days after the contamination, in comparison with the control plants.

For assay [3], the system named is Botrytis cinerea. Kind of assay: In vivo test on Botrytis cinerea (gherkin grey mould), gherkin plants, preventive spray. The conditions noted are these: 330 ppm; comparison compounds of WO 01/11965. The procedure: as §1
Gherkin plants (Petit Vert de Paris variety) in starter cups, sown on a 50/50 peat soil-pozzolana substrate and grown at 18-20° C., are treated at the cotyledon Z11 stage by spraying with the aqueous suspension described above. Plants, used as controls, are treated with an aqueous solution not containing the active material.
After 24 hours, the plants are contaminated by depositing drops of an aqueous suspension of Botrytis cinerea spores (150,000 spores per ml) on upper surface of the leaves. The spores are collected from a 15-day-old culture and are suspended in a nutrient solution composed of: • 20 g/L of gelatin • 50 g/L of cane sugar • 2 g/L of NH4NO3 • 1 g/L of KH2PO4
The contaminated gherkin plants are settled for 5/7 days in a climatic room at 15-11° C. (day/night) and at 80% relative humidity.
Grading is carried out 5/7 days after the contamination, in comparison with the control plants. Under these conditions, good (at least 50%) or total protection is observed at a dose of 330 ppm with the following compounds: 38 and 57.

On to `CC(CNC(=O)c1cc(Cl)ccc1Cl)c1ncc(C(F)(F)F)cc1Cl` (stereo not drawn) [Compound 3], for which the pest or weed control at 330 ppm in assay [1] is at least 50%.
Same read-out and setting: to `COc1ccccc1C(=O)NCC(C)c1ncc(C(F)(F)F)cc1Cl` (stereo not drawn) [Compound 4] belongs at least 50%.
`Cc1ccccc1C(=O)NCC(C)c1ncc(C(F)(F)F)cc1Cl` (stereo not drawn) [Compound 7]: the pest or weed control at 330 ppm in assay [2] and in assay [1] was at least 50% in each case.
Take `Cc1cccc(C(=O)NCC(C)c2ncc(C(F)(F)F)cc2Cl)c1C` (stereo not drawn) [Compound 8]: the pest or weed control at 330 ppm in assay [2] and in assay [1] was at least 50% in each case.
Regarding `Cc1ccc(C(=O)NCC(C)c2ncc(C(F)(F)F)cc2Cl)c(C)c1` (stereo not drawn) [Compound 9], the pest or weed control at 330 ppm in assay [2] and in assay [1] was at least 50% in each case.
For the molecule `Cc1ccc(C)c(C(=O)NCC(C)c2ncc(C(F)(F)F)cc2Cl)c1` (stereo not drawn) [Compound 10], the pest or weed control at 330 ppm in assay [2] and in assay [1] was at least 50% in each case.
For the molecule `CC(CNC(=O)c1cccc(Cl)c1F)c1ncc(C(F)(F)F)cc1Cl` (stereo not drawn) [Compound 11], in assay [1], the pest or weed control at 330 ppm is at least 50%.
Turning to `Cc1c(Cl)cccc1C(=O)NCC(C)c1ncc(C(F)(F)F)cc1Cl` (stereo not drawn) [Compound 12], the pest or weed control at 330 ppm in assay [1] was at least 50%.
Turning to `Cc1c(F)cccc1C(=O)NCC(C)c1ncc(C(F)(F)F)cc1Cl` (stereo not drawn) [Compound 13], the pest or weed control at 330 ppm in assay [2] and in assay [1] was at least 50% each time.
As for `Cc1c(O)cccc1C(=O)NCC(C)c1ncc(C(F)(F)F)cc1Cl` (stereo not drawn) [Compound 15], the pest or weed control at 330 ppm in assay [1] is at least 50%.
In the case of `CCC(CNC(=O)c1cccc(OC)c1OC)c1ncc(C(F)(F)F)cc1Cl` (stereo not drawn) [Compound 21], the pest or weed control at 330 ppm in assay [1] was at least 50%.
For the molecule `CCC(CNC(=O)c1ccccc1C)c1ncc(C(F)(F)F)cc1Cl` (stereo not drawn) [Compound 23], the pest or weed control at 330 ppm in assay [1] is at least 50%.
Take `CCC(CNC(=O)c1ccc(C)cc1C)c1ncc(C(F)(F)F)cc1Cl` (stereo not drawn) [Compound 25]: the pest or weed control at 330 ppm in assay [1] was at least 50%.
For `CCC(CNC(=O)c1cccc(O)c1C)c1ncc(C(F)(F)F)cc1Cl` (stereo not drawn) [Compound 30], the pest or weed control at 330 ppm in assay [2] was at least 50%.
As to `CC(CNC(=O)c1ccccc1C(F)(F)F)c1ncc(C(F)(F)F)cc1Cl` (stereo not drawn) [Compound 32], the pest or weed control at 330 ppm in assay [2] and in assay [1] was at least 50% each time.
In the case of `CC(C)(CNC(=O)c1ccccc1C(F)(F)F)c1ncc(C(F)(F)F)cc1Cl` [Compound 33], the pest or weed control at 330 ppm in assay [2] and in assay [1] was at least 50% in each case.
Turning to `CCCC(CCC)(CNC(=O)c1ccccc1C(F)(F)F)c1ncc(C(F)(F)F)cc1Cl` [Compound 35], the pest or weed control at 330 ppm in assay [1] is at least 50%.
Still for that read-out and setting: to `CCCC(CCC)(CNC(=O)c1ccccc1I)c1ncc(C(F)(F)F)cc1Cl` [Compound 36] belongs at least 50%.
Consider `CC(Cc1ncc(C(F)(F)F)cc1Cl)NC(=O)c1ccccc1C(F)(F)F` (stereo not drawn) [Compound 38], for which the pest or weed control at 330 ppm in assay [2] and in assay [1] was at least 50% throughout.
With `CCC(CNC(=O)c1ccccc1C(F)(F)F)c1ncc(C(F)(F)F)cc1Cl` (stereo not drawn) [Compound 39, N-{2-[3-chloro-5-(trifluoromethyl)-2-Pyridinyl]butyl}-2-(trifluoromethyl)benzamide], in assay [2], the pest or weed control at 330 ppm is at least 50%.
Still for that read-out and setting: to `CCC(CNC(=O)c1ccccc1Br)c1ncc(C(F)(F)F)cc1Cl` (stereo not drawn) [Compound 40] belongs at least 50%; to `CCC(CNC(=O)c1ccccc1C(F)F)c1ncc(C(F)(F)F)cc1Cl` (stereo not drawn) [Compound 41], at least 50%.
Consider `CCCC(CNC(=O)c1ccccc1C(F)(F)F)c1ncc(C(F)(F)F)cc1Cl` (stereo not drawn) [Compound 42], for which the pest or weed control at 330 ppm in assay [1] is at least 50%.
Regarding `CCCC(CNC(=O)c1ccccc1Br)c1ncc(C(F)(F)F)cc1Cl` (stereo not drawn) [Compound 43], the pest or weed control at 330 ppm in assay [2] and in assay [1] was at least 50% in each case.
Turning to `CCCC(CNC(=O)c1ccccc1C(F)F)c1ncc(C(F)(F)F)cc1Cl` (stereo not drawn) [Compound 44], in assay [2], the pest or weed control at 330 ppm is at least 50%.
As for `CCC(Cc1ncc(C(F)(F)F)cc1Cl)NC(=O)c1ccccc1C(F)(F)F` (stereo not drawn) [Compound 47, N-(1-{[3-chloro-5-(trifluoromethyl)-2-Pyridinyl]methyl}propyl)-2-(trifluoromethyl)benzamide], the pest or weed control at 330 ppm in assay [2] and in assay [1] was at least 50% in each case.
As for `CC(NC(=O)c1ccccc1C(F)(F)F)C(C)c1ncc(C(F)(F)F)cc1Cl` (stereo not drawn) [Compound 58], the pest or weed control at 330 ppm in assay [2] and in assay [1] was at least 50% in each case.
Regarding `CC(NC(=O)c1ccccc1I)C(C)c1ncc(C(F)(F)F)cc1Cl` (stereo not drawn) [Compound 59], the pest or weed control at 330 ppm in assay [2] and in assay [1] was at least 50% each time.
Turning to `CC(Cc1ccc(C(F)(F)F)c(Cl)n1)NC(=O)c1ccccc1C(F)(F)F` (stereo not drawn) [Compound 61], the pest or weed control at 330 ppm in assay [2] was at least 50%.
For the molecule `CC(CNC(=O)c1ccccc1C(F)(F)F)c1ccc(C(F)(F)F)c(Cl)n1` (stereo not drawn) [Compound 62], the pest or weed control at 330 ppm in assay [2] and in assay [1] was at least 50% throughout.
On to `CC(CNC(=O)c1ccccc1I)c1ccc(C(F)(F)F)c(Cl)n1` (stereo not drawn) [Compound 63], for which the pest or weed control at 330 ppm in assay [2] and in assay [1] was at least 50% throughout.
`CC(CNC(=O)c1ccccc1Br)c1ccc(C(F)(F)F)c(Cl)n1` (stereo not drawn) [Compound 64]: the pest or weed control at 330 ppm in assay [2] and in assay [1] was at least 50% each time.
As to `CC(CNC(=O)c1ccccc1C(F)(F)F)c1ccc(C(F)(F)F)cn1` (stereo not drawn) [Compound 66], the pest or weed control at 330 ppm in assay [2] and in assay [1] was at least 50% each time.
For the molecule `CC(CNC(=O)c1ccccc1I)c1ccc(C(F)(F)F)cn1` (stereo not drawn) [Compound 67], the pest or weed control at 330 ppm in assay [2] and in assay [1] was at least 50% each time.
As to `CCNC(=O)C(Cc1ncc(C(F)(F)F)cc1Cl)NC(=O)c1ccccc1` (stereo not drawn) [compound 304, N-{1-ethylcarbamoyl-2-[3-chloro-5-(trifluoromethyl)-2-pyridinyl]-ethyl}-benzamide], the “effectiveness on Botrytis cinerea” value in assay [3] is on record as “zero”.
The same measure, in the same setting: to `CCNC(=O)C(Cc1ncc(C(F)(F)F)cc1Cl)NC(=O)c1ccc(Cl)cc1` (stereo not drawn) [compound 306, N-{1-ethylcarbamoyl-2-[3-chloro-5-(trifluoromethyl)-2-pyridinyl]ethyl}-4-chlorobenzamide] belongs “zero”.
Take `CCNC(=O)C(Cc1ncc(C(F)(F)F)cc1Cl)NC(=O)c1cccc([N+](=O)[O-])c1` (stereo not drawn) [compound 307, N-{1-ethylcarbamoyl-2-[3-chloro-5-(trifluoromethyl)-2-pyridinyl]ethyl}-3-nitrobenzamide, reference compound]: in assay [3], the “effectiveness on Botrytis cinerea” value is given as “zero”. The “effectiveness on Alternaria brassicae” value in assay [1] is “poor”.
On to `CCNC(=O)C(Cc1ncc(C(F)(F)F)cc1Cl)NC(=O)c1ccccc1Br` (stereo not drawn) [compound 310, N-{1-ethylcarbamoyl-2-[3-chloro-5-(trifluoromethyl)-2-pyridinyl]ethyl}-2-bromobenzamide], for which, in assay [3], the “effectiveness on Botrytis cinerea” value was “zero”.
On the same count and under the same terms, to `CNC(=O)C(Cc1ncc(C(F)(F)F)cc1Cl)NC(=O)c1ccccc1` (stereo not drawn) [compound 314, N-{1-methylcarbamoyl-2-[3-chloro-5-(trifluoromethyl)-2-pyridinyl]ethyl}-benzamide] belongs “zero”; to `CNC(=O)C(Cc1ncc(C(F)(F)F)cc1Cl)NC(=O)c1ccc(OC)cc1` (stereo not drawn) [compound 315, N-{1-methylcarbamoyl-2-[3-chloro-5-(trifluoromethyl)-2-pyridinyl]ethyl}-4-methoxybenzamide], “zero”.
Consider `CNC(=O)C(Cc1ncc(C(F)(F)F)cc1Cl)NC(=O)c1ccc(-c2ccccc2)cc1` (stereo not drawn) [compound 316, N-{1-methylcarbamoyl-2-[3-chloro-5-(trifluoromethyl)-2-pyridinyl]-ethyl}-4-phenylbenzamide, reference compound], for which, in assay [3], the “effectiveness on Botrytis cinerea” value is listed as “zero”. The “effectiveness on Alternaria brassicae” value in assay [1] is listed as “poor”.
